Measurements reported in patent EP1760056A1, “A convenient method for the preparation of no-carrier-added O-(2-[18F]fluoroethyl)-L-Tyrosine)” (Institute of Nuclear Energy Research, priority 2005, dated 2007).
Like-named read-outs stand apart in the source and are kept apart here.

Key:
F98 glioma cells [1] = experiment: L-[18F]FET uptake by F98 glioma tumor cells; assay type: cell-based, rat; conditions: 10 µCi/well
Procedure: • (1) In five six-well plates, put 1×10^6 F98 glioma cells and 2 ml DMEM (1g glucose/1) into three wells. • (2) Total of five time points (2, 5, 10, 30 minute and 1hour) in this experiment and each time point use one six-well plate. • (3) Predetermined activity of L-[^18F]FET or [^18F]FDG (10 µCi/well) is added into each well during the experiment. […] F98 glioma cells intake L-[^18F]FET rapidly and maximal accumulation will reach after 10 minutes (uptake ratio 0.47%). As cell cannot metabolize L-[^18F]FET, therefore, the rate of L-[^18F]FET transportation by the cells become balance after ten minutes when add L-[^18F]FET; the accumulation of L-[^18F]FET in glioma cells only slightly decrease after 1 hour (uptake ratio 0.41%).

[2] = Biological distribution of L-[18F]FET in F98 glioma-bearing Fischer 344 rat; conditions: in vivo, iv; for tissue uptake at 0.25 h: 15 min after injection via tail vein; for tissue uptake at 0.5 h: 30 min after injection via tail vein; for tissue uptake at 1 h: 60 min after injection via tail vein; for tissue uptake at 2 h: 120 min after injection via tail vein
Procedure: (§1) • (1) Total of twenty Fischer 344 male rats will be assessed in vivo for L-[^18F]FET biological distribution. Use the intersection of bregma and sagittal midlines as original point; so as to implant F98 glioma cells (1 × 10^5cells /10 µl) at the place of 3mm left 5mm upward and 5mm depth. Biological distribution test will be carry out after 11~12 days of brain tumor implantation. • (2) Different volume of radioactive level is injected, injected volume of L-[^18F]FET for each Fischer 344 rat is 200~300µl, that is approximately 200~250 µCi of activity. • (3) Inject L-[^18F]FET via tail vein, and rats are sacrificed at 15, 30, 60, 90 and 120 minutes. • (4) Dissection of rat organ is right after sacrifice. Scissors off chest and abdomen fur alone the line from genital pore upward to jowl. Next, scissors off chest above xiphisternal transversely. Open ribs aside, take blood sample from venous sinus with 0.5 ml syringe. Withdraw the needle after depletion of blood and collect the extracted heart. Collect the lung lobes with forcep. • (5) Scissors off abdominal muscle from genital pore upward to the position below xiphisternal longitudinally. Then, scissors off the opening of upper and lower edges transversely, everts muscle layers to both sides and expose celiac organs. Search for bladder in lower abdomen and sequentially removes stomach, liver, spleen, small intestine, large intestine, kidney, and muscle. • (6) After turn over the rat, scissors off fur of shoulder and removes exposed subcutaneous tumor. Cut scalp upward at lower margin of cranium above foramen magnum and expose cranial bone. Then, cut cervical portion transversely at foramen magnum and expose spinal cord. Inserts foramen magnum with scissors' tip while attach the inner surface of cranium; such that scissors' tip can reach the frontal edge of cranial cavity in order to scissor off the center of cranium. Use scissors to open cranium aside and expose brain tissue. Alone skull base insert scissors deeply to the front edge of cranial cavity in order to remove left-brain, right-brain and brain tumor. • (7) Weight all organ samples; measure radioactivity with γ-counter and convert to %ID/g (% injection dose/g organ) of each organ for estimate the biological distribution of L-[^18F]FET. […] According to reports, L-[^18F]FET can pass through blood brain barrier (BBB) and enter brain by way of L amino acid transporter system. […] Tumor-to-normal brain ratio of L-[^18F]FET at 15, 30, 60, 90 and 120 minutes are 1.54, 1.74, 3.16, 3.14 and 2.34 respectively. Besides brain tumor, rat pancreas also accumulate large amount of L-[^18F]FET (0.98, 1.76, 2.55, 2.28 and 2.24 %ID/g respectively at 15, 30, 60, 90 and 120 minutes); the increasing radioactivity of L-[^18F]FET in pancreas is because of pancreas require large amount of amino acid for synthesis various enzymes and hormones. Some papers reported that patient with tumor observes no significant accumulation of radioactivity in pancreas when use positron emission tomography (PET), the discrepant results were assumed that human and rat have different metabolic pathway. Furthermore, biological distribution study of L-[^18F]FET indicated radioactivity accumulation in tumor cells (expressed by %ID/g) are much higher than other normal organs (left-brain, small intestine, kidney, liver, blood and muscle) except pancreas, this means L-[^18F]FET can be a potential PET agent for substantially different site of tumor. […] Table 1: Determination of accumulated radioactivity (%ID/g) in organs at different time points after injected L-[18F]FET into tumor-bearing rat

F98 glioma cells [3] = experiment: as above; conditions: in vivo
Procedure: as §1

brain tumor (F98 glioma) = experiment: PET and microPET imaging of tumor-bearing rat with L-[18F]FET; assay type: in vivo, rat (Fischer 344); conditions: 400 µCi into tail vein
Procedure: • (1) Positron emission tomography (PET) studies of tumor-bearing rat (Fischer 344) with L-[^18F]FET will be carry out after 11~12 days of brain tumor (F98 glioma) implantation. • (2) Producing processes of L-[^18F]FET as described above, and estimates its administrating amount of agent according to the level of radioactivity. • (3) At the very beginning, inject 400 µCi of L-[^18F]FET into tail vein. Temporarily anesthetize rats with ether at time of 0.5, 1, 1.5 and 2 hours. Fix rat on transparent acrylic board and place on PET table after securing stretched limbs on the board. Continuously anesthetize rats with isoflurane gas. Align implant portion of head with PET machine as to assure the fixation of original imaging position. • (4) Adjust background value by blank scan before PET imaging. • (5) Use Ga-68 radioactive source proceed transmission scan for adjust tissue attenuation. • (6) Commence PET and microPET imaging. Perform image processing after reconstruction of acquired image data; the coronal and cross section scans show in Figure 3 and 9. […] In contrast to tumor site, normal tissue have lower radioactivity accumulation of L-[^18F]FET because of lower amino acid requirement.

[4] = Liver, read-out: accumulated radioactivity
[5] = Lung, read-out: accumulated radioactivity
[6] = Muscle, read-out: accumulated radioactivity
[7] = Pancreas, read-out: accumulated radioactivity
[8] = Right brain, read-out: accumulated radioactivity

N[C@@H](Cc1ccc(OCC[18F])cc1)C(=O)O [L-[^18F]FET, O-(2-[^18F]fluoroethyl)-L-Tyrosine] gave an uptake ratio (F98 glioma cells [1]; after 10 minutes (maximal accumulation)) of 0.47%, an uptake ratio (F98 glioma cells [1]; after 1 hour) of 0.41% and a tissue uptake at 0.25 h [2, 4] of 0.27 ± 0.06 %ID/g. For the same compound, the tissue uptake at 0.5 h [2, 4] was 0.37 ± 0.07 %ID/g, the tissue uptake at 1 h [2, 4] was 0.41 ± 0.06 %ID/g and the tissue uptake at 1.5 h ([2]; Liver, 90 min after injection via tail vein, read-out: accumulated radioactivity) was 0.49 ± 0.01 %ID/g. It also gave a tissue uptake at 2 h [2, 4] of 0.41 ± 0.09 %ID/g, a tissue uptake at 0.25 h [2, 5] of 0.32 ± 0.05 %ID/g and a tissue uptake at 0.5 h [2, 5] of 0.43 ± 0.09 %ID/g. The tissue uptake at 1 h [2, 5] was 0.43 ± 0.07 %ID/g, the tissue uptake at 1.5 h ([2]; Lung, 90 min after injection via tail vein, read-out: accumulated radioactivity) was 0.45 ± 0.02 %ID/g and the tissue uptake at 2 h [2, 5] was 0.4 ± 0.06 %ID/g. The tissue uptake at 0.25 h [2, 6] was 0.19 ± 0.03 %ID/g, the tissue uptake at 0.5 h [2, 6] was 0.28 ± 0.01 %ID/g and the tissue uptake at 1 h [2, 6] was 0.36 ± 0.04 %ID/g. It also gave a tissue uptake at 1.5 h ([2]; Muscle, 90 min after injection via tail vein, read-out: accumulated radioactivity) of 0.44 ± 0.1 %ID/g, a tissue uptake at 2 h [2, 6] of 0.37 ± 0.1 %ID/g and a tissue uptake at 0.25 h [2, 7] of 0.98 %ID/g. The tissue uptake at 0.5 h [2, 7] was 1.76 %ID/g, the tissue uptake at 1 h [2, 7] was 2.55 %ID/g and the tissue uptake at 1.5 h ([2]; Pancreas, 90 min after injection via tail vein, read-out: accumulated radioactivity) was 2.28 %ID/g. The tissue uptake at 2 h [2, 7] was 2.24 %ID/g, the tissue uptake at 0.25 h [2, 8] was 0.07 ± 0.02 %ID/g and the tissue uptake at 0.5 h [2, 8] was 0.21 ± 0.03 %ID/g. For the same compound, the tissue uptake at 1 h [2, 8] was 0.34 ± 0.03 %ID/g, the tissue uptake at 1.5 h ([2]; Right brain, 90 min after injection via tail vein, read-out: accumulated radioactivity) was 0.48 ± 0.08 %ID/g and the tissue uptake at 2 h [2, 8] was 0.34 ± 0.04 %ID/g. It also gave a tissue uptake at 1.5 h ([2]; maximum accumulation in normal brain tissue) of 0.48 %ID/g, a Tumor-to-normal brain ratio (F98 glioma cells [3]; 15 min) of 1.54 and a Tumor-to-normal brain ratio (F98 glioma cells [3]; 30 min) of 1.74. The Tumor-to-normal brain ratio (F98 glioma cells [3]; 60 min) was 3.16, the Tumor-to-normal brain ratio (F98 glioma cells [3]; 90 min) was 3.14 and the Tumor-to-normal brain ratio (F98 glioma cells [3]; 120 min) was 2.34. For the same compound, the “radioactivity accumulation in brain tumor” value (brain tumor (F98 glioma)) was “significant radioactivity accumulation in brain tumor” and the “time of maximum uptake in brain tumor” value (brain tumor (F98 glioma); time after injection) was 90 min.
